In PubChem BioAssay (NCI) one finds TGI data, which are given here for 12 compounds.

What all share (test): growth of human tumour cells (NCI), 48 h
The test system of test [1] is HT29 colon.
The test system of test [2] is KM20L2 colon.
Test [3] relates to NCI-H460 lung.
For test [4], the system named is HOP-18 NSCLC.
For test [5], the system named is M19-MEL melanoma.
In test [6] the test system is DMS 273 small cell lung.
For test [7], the system named is DLD-1 colon.
Test [8] concerns DMS 114 small cell lung.
For test [9], the system named is NCI-H23 lung.
Test [10] concerns HCT-15 colon.
The subject of test [11] is UACC-257 melanoma.
Test [12] concerns XF 498 CNS.
Test [13] deals with SW-620 colon.
The test system of test [14] is TK-10 renal.
In test [15] the test system is LXFL 529 NSCLC.

Each structure is given as a SMILES string.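 Growth conditions: 96-well plates. Treatment: test compound, 48 hours, 5 concentrations. Analysis: linear interpolation between bracketing concentrations; unreached endpoints set to highest concentration. TGI: concentration producing complete growth inhibition.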 A value given as a limit tells only on which side of the number the result lay.

As to `NC(=O)c1cccc([C@@H]2O[C@H](CO)[C@@H](O)[C@H]2O)c1`, the TGI is 99 µM in test [1]; more than 94.1 µM in [2]; more than 100 µM in test [3]; 68.6 µM in test [4]; 60.7 µM in test [5]; 22.9 µM in test [6]. For the same compound, the TGI was 35.9 µM in test [7]; 32.7 µM in test [8]; 35.4 µM in test [9]; 11.7 µM in test [10]; more than 100 µM in [11]; 7 µM in test [12]. In addition, the TGI was 42.8 µM in test [13] and 99.1 µM in test [14].

As for `Cc1ccc(S(=O)(=O)c2c(N)n(CCN(C)C)c3nc4ccccc4nc23)cc1`, the TGI in [1], in test [3], in test [4], in test [5], in test [6] and in test [7] was more than 100 µM in each case. In addition, the TGI in test [8], in test [15], in test [9], in test [10], in [11] and in test [12] was more than 100 µM throughout. Also, the TGI in test [14] was more than 100 µM.

`COc1ccc(CCNCCCC2c3ccccc3-c3ccccc32)cc1OC`: the TGI in test [1] was 16.1 µM; in [2] it was 12.4 µM; in test [3], 18.3 µM; in [4] it was 30.6 µM; in [5] it was 24.5 µM; in test [6] it was 21.2 µM. In addition, the TGI is 30.5 µM in [7]; 20.3 µM in [8]; 27.5 µM in test [15]; 28.9 µM in [9]; 29 µM in test [10]; 28.1 µM in test [11]. Further, the TGI in [12] is 28.2 µM; in [13] it was 20.4 µM; in [14], 27.7 µM.

For `CC(CCCOC(c1ccccc1)(c1ccccc1)c1ccccc1)OC(=O)Nc1ccccc1` (stereo unspecified), the TGI came out at 25.8 µM in test [1]; 19.8 µM in [2]; 24.8 µM in [3]; 28.3 µM in test [5]; 29.3 µM in [6]; 27.1 µM in [7]. In addition, the TGI was found to be 24.5 µM in test [8]; 26 µM in test [15]; 21.7 µM in test [9]; 27.9 µM in test [10]; 28.8 µM in [11]; 28.1 µM in test [12]. The TGI in [13] was 27.4 µM; in test [14] it was 34.7 µM.

`O=C(CC1C(=O)c2ccccc2C1=C1C(=O)c2ccccc2C1=O)c1ccccc1` (stereo unspecified): the TGI in [1], in test [2], in test [3], in test [4], in test [5] and in test [6] was more than 100 µM throughout. Besides, the TGI in [7], in test [8], in test [15], in test [9], in test [10] and in [11] was more than 100 µM in each case. In addition, the TGI in [12], in [13] and in test [14] was more than 100 µM throughout.

`CCOC(OC1=C(C#N)CCCC1)C(C)[Se]c1ccccc1` (stereo unspecified): the TGI in test [1] was more than 100 µM; in test [2] it was more than 100 µM; in [3], more than 100 µM; in [4] it was more than 100 µM; in test [5] it was 96.5 µM; in test [6] it was 33.7 µM. In addition, the TGI in test [7] was more than 100 µM; in [8], 15.4 µM; in [15], more than 100 µM; in test [9], 39.4 µM; in [10], more than 100 µM; in test [11] it was more than 100 µM. Further, the TGI in [12] was 57 µM; in [14], more than 100 µM.

As to `COC(=O)c1ccc(NCc2cc(O)ccc2O)cc1`, the TGI is 50.7 µM in test [1]; more than 72.7 µM in test [2]; 52.2 µM in test [3]; 27.4 µM in test [4]; 33.7 µM in test [5]; more than 54.8 µM in test [6]. Also, the TGI in test [7] turned out to be 40.8 µM; in [8], 8.04 µM; in [15] it was 17.9 µM; in [9] it was 32.9 µM; in test [10], 19.5 µM; in test [11], 29.2 µM. Besides, the TGI in test [12] amounted to 9.63 µM; in test [13], 23.4 µM; in test [14], 31.6 µM.

Regarding `Cc1ccccc1N=NC(C(=O)c1ccccc1)C(=O)c1ccccc1`, the TGI is more than 100 µM in test [1]; 70.7 µM in [2]; 42.5 µM in [5]; 62.3 µM in test [6]; more than 100 µM in test [7]; 50.7 µM in test [8]. For the same compound, the TGI in test [15] was more than 100 µM; in test [9], 55.2 µM; in test [10], 80.8 µM; in test [11] it was more than 100 µM; in test [12] it was 55.1 µM; in test [13], more than 100 µM. Also, the TGI in test [14] was more than 100 µM.

For the compound `Cc1ccc(NC(=O)C(=O)Cc2cc[n+]([O-])cc2)cc1`, the TGI in test [1], in test [2], in test [3], in test [4], in test [5] and in test [6] was more than 100 µM each time. The TGI in [7], in test [8], in test [15], in [9], in [10] and in test [11] was more than 100 µM each time. Besides, the TGI in test [12], in test [13] and in test [14] was more than 100 µM each time.

For the compound `Cc1cc(N(CCC#N)CCC#N)ccc1C=Nc1ccc(C(=O)NN2C(=O)/C(=C/c3ccc(N(CCC#N)CCC#N)cc3)N=C2c2cc([N+](=O)[O-])ccc2Cl)cc1`, the TGI in [1], in test [2], in test [3], in test [4], in test [5] and in test [6] was more than 100 µM each time. The TGI in test [7], in test [8], in test [15], in test [9], in test [10] and in test [11] was more than 100 µM in each case. Also, the TGI in test [12], in test [13] and in [14] was more than 100 µM in each case.

As for `CC(=O)C1=CCC2c3[nH]c4ccccc4c3CCN2C1` (stereo unspecified), the TGI is more than 100 µM in [1]; 46.2 µM in [2]; more than 100 µM in test [3]; more than 100 µM in test [4]; more than 100 µM in test [5]; more than 100 µM in test [6]. The TGI in test [7], in test [15], in test [9], in test [10], in [11] and in [12] was more than 100 µM in each case. The TGI in test [13] and in [14] was more than 100 µM in each case.

With `COc1ccc2c(c1)CCC(OS(=O)(=O)CC13CCC(CC1=O)C3(C)C)C2=O` (stereo unspecified), the TGI in [2] is 37.8 µM; in test [3], 38.6 µM; in test [4] it was 78.2 µM; in test [5] it was more than 100 µM; in [6], 58.4 µM; in test [7] it was more than 100 µM. Also, the TGI in test [8] is 73.3 µM; in test [15] it was more than 100 µM; in [9] it was 36.1 µM; in test [10], 92 µM; in test [11], more than 100 µM; in [12], 93.9 µM. Besides, the results for the TGI in [13] and in [14] were 69.7 µM and 95.9 µM, respectively.
